Values of other authors, collected in US20050238616A1, “Compositions for treatment of central nervous system neoplasms, and methods of making and using the same” (Guilford Pharmaceuticals, Inc., priority 2002, published 2005).

Tested on: human glioma cell lines
Conditions: several human glioma cell lines in vitro

Compound: CC(=O)O[C@H]1C(=O)[C@@]2(C)[C@H]([C@H](OC(=O)c3ccccc3)[C@]3(O)C[C@H](OC(=O)[C@H](O)[C@@H](NC(=O)c4ccccc4)c4ccccc4)C(C)=C1C3(C)C)[C@]1(OC(C)=O)CO[C@@H]1C[C@@H]2O [paclitaxel]
- LD90: 5 to 10 nM
